Measurements reported in US6011014A, “Peptide T and related peptides in the treatment of inflammation, including multiple sclerosis” (Advanced Immunit, Inc., priority 1998, dated 2000).
Square brackets hold non-standard residues; d marks the D form. Peptide text beside a SMILES is read from it.

Legend:
[1] = test system: Mice bearing Meth A ascites tumours; experiment: LPS toxicity in Meth A ascites tumour bearing mice; assay type: in vivo, mouse; conditions: 100 μg LPS s.c. + 1 mg analogue; for % mice surviving 41 hours: LPS + BSA 60; for % mice with diarrhoea at 19 hrs / % mice with exudate at 19 hrs: LPS + BSA 100
Description: Mice bearing Meth A ascites tumours were given 100 μg LPS subcutaneously with either bovine serum albumin (BSA) or peptide T analogue (504 or 505, 1 mg). The number of animals showing signs of LPS toxicity (diarrhoea, exudate from the eyes and general level of activity) in each group was recorded at 19, 24 and 41 hours after injection. At the completion of the experiment the number of surviving animals was recorded (see Table II below) and the survivors bled for later determination of TNF, IL-1 , IL-6 and RNI levels.

[2] = pharmacokinetics of Peptide T; conditions: following administration in vivo
Excerpt: Initial research in this area was focused on the CNS for two reasons: a high concentration of CD4 molecules was found on neurons and one of the major effect of HIV infection is the development of neurocognitive dysfunction.
1. Macrophages may be more sensitive to Peptide T than are T cells, since T cells receive many more potential activating signals than the CD4/MHC II interaction. Thus macrophages may be down regulated by Peptide T administration on the first day of in vitro culture inhibiting their ability to present mitogens and antigens to T cells. B cells can act as APC in place of macrophages when presenting antigen, but not when presenting mitogens which are antigen non-specific (explaining the results of Table III). Resting B cells are resistant to Peptide T as they are CD4 negative. In the presence of a single dose of Peptide T, they could present antigen to T cells allowing proliferation of PBMC in response to antigen. When Peptide T is given on a daily basis in cultured T cells, which may be less sensitive to the effects of Peptide T, then macrophages may be inhibited. Daily administration of Peptide T in vivo, may not function as it does on a daily basis in vitro, since the half life of Peptide T in vivo is shorter than in vitro. In vitro serum supplements are heat inactivated to destroy proteolytic enzymes which actively degrade Peptide T in vivo. […]

[3] = tolerability of Peptide T therapy; assay type: in vivo, human; conditions: patients
Excerpt: Cyclosporine is an anti-inflammatory drug that inhibits lymphocyte proliferation by inhibiting IL-2 and IFN γ gene transcription by binding to and inactivating cyclophilin, an isomerase required for signal transduction (Halloran et al, Clin. Biochem. 24 3-7 (1991)). […] Cyclosporine induced side effects include renal tubular atrophy, nephrotoxicity, hypertension, hirsutism, gingival hypertrophy, tremors, convulsions and paresthesia (Briggs J.D. Immunol. Lett. 29 89-94 (1991)).

PBMC = experiment: mitogen-induced lymphoproliferation (Example 17, 20); assay type: cell-based, human; conditions: Con A-induced proliferation measured daily, 10^-9 M; FIG. 3
Description: Concanavalin A (Con A), pokeweed mitogen, (PWM) and phytohaemagglutin-P (PHA-P) were obtained from Sigma Chemical Co. (St. Louis, Mo., U.S.A.). Peptide T was synthesised by Carlbiotech Ltd (Copenhagen, Denmark) and supplied as the chloride salt at 8.5 mg/ml in 0.9% benzyl alcohol as a preservative and was stored at 4° C. Peptide T was diluted to working solutions in culture medium (RPMI). Dilute solutions of Peptide T were prepared fresh from stock Peptide T for each experiment. ^3 H-thymidine (5 Ci/mmol) was obtained from Amersham.
Isolation of PBMC: Whole blood from healthy, adult volunteers was drawn into heparin and peripheral blood mononuclear cells (PBMC) isolated by density gradient centrifugation on HISTOPAQUE™ (Sigma Chemical Co). PBMC were removed from the interface, washed three times in RPMI containing gentamycin (100 μg/ml) and resuspended to 1×10^6 PBMC/ml in RPMI containing 10% foetal bovine serum and gentamycin. 10^5 PBMC were cultured in the presence of 100 μl of mitogen suspension in 96 well plates. […] The amount of incorporated ^3 H-thymidine was determined using a BECKMAN™ LS8000 liquid scintillation counter and proliferation expressed as either counts per minute (cpm) or as a proliferation index (PI). […]
10^5 PBMC were cultured in the presence of PWM, Con A or PHA (see Example 17). […] Data were analysed by two sample ANOVA using 95% confidence limits.

[4] = test system: MO/MAC cytotoxicity against K562 target cells; experiment: macrophage cytotoxicity assay; assay type: cell-based, human; conditions: Peptide T added with target cells (step 2) or every day; FIG. 7
Description: The MO/MAC cytotoxicity assay is a two step assay. After isolation of adherent cells (mainly MO/MAC) from PBMC, MO/MAC are activated by lymphokines (including IFN gamma and LPS. Subsequent to washing which removes activators, ^3 H-thymidine labelled K562 target cells were added to activated MO/MAC and incubated for 3 days. The degree of cytotoxicity was proportional to the amount of radioactive label released into the culture supernatant, is shown in the following scheme: […]

human neutrophils [5] = experiment: TNF-induced neutrophil chemiluminescence; assay type: cell-based; conditions: FIG. 13
Description: (§1) Neutrophils were isolated from whole blood from healthy blood donors. Separation was achieved by the rapid-single-step method of centrifugation of whole blood on FICOLL-HYPAQUE™. These were >99% viable and usually >98% pure.
TNF was a recombinant product produced in E. coli. Peptide T and analogue 505 (D-Ser-Ser-D-Thr-Thr-D-Thr-Thr-Tyr-D-Thr) were resuspended in Hank's Balanced Salt Solution (HBSS).
(§2) To 100 μl of 500-1000 U/ml of TNF was added 10 μl of peptide and after 5 min 100 μl of 1×10^7 neutrophils/ml was added. The cells further incubated at 37° C. /20 min and then tested for chemiluminescence activity. In some cases an agonist such as fMLP (10^-7 M) was added. Chemiluminescence was measured in a luminometer (LKB). The results for Peptide T are presented in FIG. 12 as peak rate of CL release. Lucigenin-dependent chemiluminescence was measured: this represents superoxide measurement. In another set of experiments the effects of analogue 505 on the LPS-induced neutrophil chemiluminescence were examined. In this case the LPS was essentially substituted for the TNF. The concentration of LPS was 0.005 μg/ml.

human neutrophils [6] = experiment: LPS-induced neutrophil chemiluminescence; assay type: cell-based; conditions: LPS 0.005 μg/ml; FIG. 14
Description: as §1, §2

| SMILES | % mice surviving 41 hours [1] [%] | % mice with diarrhoea at 19 hrs [1] [%] | % mice with exudate at 19 hrs [1] [%] | peak plasma concentrations [2] [nM] | side effects attributable to Peptide T therapy [3] | cytotoxicity for responding lymphocytes (PBMC) | cytotoxicity of activated MO/MAC [4] | TNF priming and activation of human neutrophils (chemiluminescence) (human neutrophils [5]) | LPS activation of human neutrophils (chemiluminescence) (human neutrophils [6]) |
| --- | --- | --- | --- | --- | --- | --- | --- | --- | --- |
| C[C@H](O)[C@@H](NC(=O)[C@H](Cc1ccc(O)cc1)NC(=O)[C@H](CC(N)=O)NC(=O)[C@H](NC(=O)[C@@H](NC(=O)[C@H](NC(=O)[C@H](CO)NC(=O)[C@@H](C)N)[C@H](C)O)[C@@H](C)O)[C@H](C)O)C(N)=O [compound 504, H-D-Ala-Ser-D-Thr-Thr-D-Thr-Asn-Tyr-D-Thr-NH2] | 100 | 40 | 60 | – | – | – | – | – | – |
| C[C@@H](N)C(=O)N[C@@H](CO)C(=O)N[C@H](C(=O)N[C@H](C(=O)N[C@H](C(=O)N[C@@H](CC(N)=O)C(=O)N[C@@H](Cc1ccc(O)cc1)C(=O)N[C@H](C(N)=O)[C@@H](C)O)[C@@H](C)O)[C@@H](C)O)[C@@H](C)O [Peptide T, D-Ala-Ser-Thr-Thr-Thr-Asn-Tyr-Thr-Amide] | – | – | – | 55 | no significant side effects | not cytotoxic | inhibit the cytotoxicity | – | – |
| C[C@H](O)[C@@H](NC(=O)[C@H](Cc1ccc(O)cc1)NC(=O)[C@@H](NC(=O)[C@H](NC(=O)[C@@H](NC(=O)[C@H](NC(=O)[C@H](CO)NC(=O)[C@H](N)CO)[C@H](C)O)[C@@H](C)O)[C@H](C)O)[C@@H](C)O)C(N)=O [compound 505, H-D-Ser-Ser-D-Thr-Thr-D-Thr-Thr-Tyr-D-Thr-NH2] (H-[dS]S[dT]T[dT]TY[dT]-NH2) | 100 | 40 | 20 | – | – | – | – | inhibits TNF priming and activation of human neutrophils | inhibits LPS activation of human neutrophils |
